Test [1] addresses T1, human GLP-1R (Homo sapiens, UniProt P43220).
T1 construct: expressed in transfected cells; vector pcDNA5/FRT
Put plainly: cAMP generation in intact HEK-GLP-1R cells. Type of test: cell-based. As to the method:
(§1) HEK-Flp-In cells with stable recombinant expression of the human GLP-1R (HEK-GLP-1R) were cultured in DMEM with high glucose supplemented with 10% FBS, 100 µg/ml streptomycin and 100 units/ml penicillin sulphate. These cells were originally generated by transfection of HEK-Flp-In cells (Invitrogen: Paisley, U.K.) with pcDNA5/FRT containing the human GLP-1R. […] INS-1E cells were kindly provided by Prof. C.B. Wollheim of the University of Geneva, Switzerland [19]. These cells were used between passages 65–90 and cultured in RPMI media containing 11.1 mM glucose, 5% heat-inactivated FBS, 100 µg/ml streptomycin, 100 units/ml penicillin sulphate, 100 units/ml neomycin, 50 µM β-mercaptoethanol, 10 mM HEPES and 1 mM sodium pyruvate. All cells were cultured at 37°C in a 5% CO2 humidified atmosphere and passaged at confluence.
(§2) Confluent monolayers of HEK-GLP-1R cells cultured in 24-well plates pre-coated with poly-D-lysine (0.1% w/v) where washed twice with 0.5 ml Krebs-HEPES buffer (KHB, composition: 10 mM HEPES; 4.2 mM NaHCO3; 11.7 mM D-glucose; 1.18 mM MgSO4·7H2O; 1.18 mM KH2PO4; 4.69 mM KCl; 118 mM NaCl; 1.3 mM CaCl2·2H2O; pH 7.4) containing 0.1% (w/v) BSA (KHB-BSA) before incubation (10 min, 37°C) in 360 µl KHB-BSA containing 500 µM isobutylmethylxanthine (IBMX). Ligands or vehicle control (40 µl) were added and reactions terminated after the appropriate times by replacement of the aqueous phase with ice-cold 0.5 M trichloroacetic acid. INS-1E cells grown to confluence in 24-well plates were treated similarly with the exception that after washing in KHB, cells were incubated in 200 µl KHB-BSA containing 1.4 mM glucose without IBMX for 2 h followed by challenge with ligands (or vehicle) for 15 min at 37°C in 400 µl KHB-BSA, in the presence of 10 mM glucose and 500 µM IBMX. Reactions were terminated as above.
(§3) The cAMP was extracted from either intact cell or membrane preparations using a method identical to that for extraction of Ins(1,4,5)P3 [22]. Levels of cAMP were then determined by a competitive radioreceptor assay using binding protein purified from bovine adrenal glands and related to cellular protein assessed by Bradford assay.
(§4) Concentration-response curves were fitted using GraphPad Prism (GraphPad Software Inc., CA) using a standard four parameter logistic equation. All data are representative of n≥3 or are presented as mean+/±s.e.m., where n = 3 unless otherwise stated. Statistical analysis was by oneway ANOVA and where P<0.05, followed by Bonferroni's or Dunnett's multiple range test as indicated. Alternatively analysis was performed by Student's t-test. Where potency estimates are given these are pEC50 values (−log10 of the molar concentration giving 50% of the maximal response).

The subject of test [2] is GLP-1R. The conditions noted are these: cited from earlier work. From the text: Such proteolysis is thought to remove biological activity.
The target in test [3] is T2, GLP-1R (native, rat insulinoma cell line INS-1E) (Rattus norvegicus, UniProt P32301).
T2 construct: the rat insulinoma cell line, INS-1E, with native expression of the GLP-1R; endogenous in cells; host or cells: INS-1E rat insulinoma cells (gift of Prof. C.B. Wollheim)
T2 sequence (P32301 22-463): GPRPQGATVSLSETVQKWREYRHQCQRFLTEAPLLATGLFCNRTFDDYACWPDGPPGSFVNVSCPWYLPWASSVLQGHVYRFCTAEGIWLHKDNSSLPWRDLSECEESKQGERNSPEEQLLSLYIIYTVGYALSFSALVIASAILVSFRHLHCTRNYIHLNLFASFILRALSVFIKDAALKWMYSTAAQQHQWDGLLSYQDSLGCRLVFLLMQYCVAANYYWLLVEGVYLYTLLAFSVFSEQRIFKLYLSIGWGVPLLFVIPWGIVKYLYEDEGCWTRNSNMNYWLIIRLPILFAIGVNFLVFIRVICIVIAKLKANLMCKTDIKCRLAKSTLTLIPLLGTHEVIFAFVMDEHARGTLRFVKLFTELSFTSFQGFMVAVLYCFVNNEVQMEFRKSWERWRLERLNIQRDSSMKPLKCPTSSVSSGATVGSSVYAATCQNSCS
As to the kind of experiment: ERK activation (phospho-ERK Western blot) in INS-1E cells. The test is classed as cell-based. The conditions noted are these: single ligands, 5 min; much lower concentrations of GLP-1 7–36 amide required. As to the method:
as §1, §4

The target in test [4] is T1, human GLP-1R. As to the kind of experiment: ERK activation (phospho-ERK Western blot) in HEK-GLP-1R cells. The test is classed as cell-based. The conditions noted are these: compound 2 10 µM, 5 min. The method, then: as §4
The next test relates to β2-adrenoceptors. Put plainly: cAMP accumulation via β2-adrenoceptors in HEK-GLP-1R cells. Type of test: cell-based. As to the method: Ligands or vehicle control (40 µl) were added and reactions terminated after the appropriate times by replacement of the aqueous phase with ice-cold 0.5 M trichloroacetic acid. […] Reactions were terminated as above.
as §3
All data are mean±/+s.e.m., n = 3–4, *** P<0.001 and ** P<0.01 by Bonferroni's multiple range test. For clarity only differences between ‘numerical’ and ‘co-addition’ conditions are shown.

In test [5] the target is T2, GLP-1R (native, rat insulinoma cell line INS-1E). Put plainly: cAMP generation in INS-1E cells. Type of test: cell-based. The method, then:
as §1, §2, §3, §4

Test [6] relates to GLP-1R. The conditions noted are these: unclear whether additivity or true potentiation; ref [33]; cited from earlier work.

T1 sequence (P43220 24-463): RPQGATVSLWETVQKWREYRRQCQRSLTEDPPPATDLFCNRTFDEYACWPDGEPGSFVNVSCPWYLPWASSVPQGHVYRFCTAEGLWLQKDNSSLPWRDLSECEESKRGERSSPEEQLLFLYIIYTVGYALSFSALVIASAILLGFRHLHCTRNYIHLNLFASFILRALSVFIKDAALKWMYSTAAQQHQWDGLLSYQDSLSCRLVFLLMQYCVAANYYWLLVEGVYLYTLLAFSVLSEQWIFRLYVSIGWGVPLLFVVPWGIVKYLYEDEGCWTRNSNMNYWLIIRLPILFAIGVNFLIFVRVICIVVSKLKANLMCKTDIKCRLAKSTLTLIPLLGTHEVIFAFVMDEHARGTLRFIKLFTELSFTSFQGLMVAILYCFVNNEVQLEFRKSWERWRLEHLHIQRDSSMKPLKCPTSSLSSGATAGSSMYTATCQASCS

Regarding `CC(C)(C)Nc1nc2cc(Cl)c(Cl)cc2nc1S(C)(=O)=O` [compound 2, 6,7-dichloro-2-methylsulfonyl-3-N-tert-butylaminoquinoxaline], the “time of peak cAMP response” value on human GLP-1R [1] (1 µM compound 2, IBMX) stood at 30 min. Also, on human GLP-1R [1] (1 µM, over 60 min, IBMX, 5% DMSO, n = 3), the “cAMP response over time (in words)” value is “evoked a more robust increase, which peaked at 30 min and then declined”. The “cAMP response (in words)” value at human GLP-1R [1] (concentration-response, 15 min, IBMX) is “at >3 µM caused progressively lower cAMP responses, resulting in a bell-shaped concentration-response curve”. In addition, the “maximal response (Emax), cAMP” value on human GLP-1R [1] (no pretreatment (buffer 10 min), 15 min challenge, IBMX, pH 7.4, 37°C, mean±s.e.m., n = 3) is 1908±91 pmol/mg protein. Moreover, at human GLP-1R [1] (no pretreatment (buffer 10 min), 15 min challenge, IBMX, compound 2: rising phase of bell-shaped curve, mean±s.e.m., n = 3), the “pEC50, cAMP” value stood at 5.94±0.04. The “Emax as % of the GLP-1 7–36 amide response, cAMP” value at human GLP-1R [1] (no pretreatment, 15 min challenge, IBMX) was 72%. The “pEC50, cAMP, after preincubation with GLP-1 9–36 amide” value at human GLP-1R [1] (preincubated 10 min with 1 µM GLP-1 9–36 amide, 15 min challenge, IBMX, compound 2: rising phase, mean±s.e.m., n = 3) was 6.55±0.07. In the test on GLP-1R [2] (ago-allosteric modulator, ref [15]), the “effect at the GLP-1R (in words)” value was “not only enhancing affinity of the GLP-1R for GLP-1 but providing effective direct agonism”. In the test on GLP-1R [2] (ref [7], [15]), the “effect on affinity for GLP-1 and on its potency or intrinsic activity” value is reported as “modestly increases the affinity for GLP-1 it has little impact on potency or intrinsic activity”. Further, in the test with GLP-1R [2] (ref [16]), the “interaction of compound 2 and GLP-1 7–36 amide on ERK activation” value was “lack of interaction between compound 2 and GLP-1 7–36 amide on ERK activation”. Also, the “ERK activation (INS-1E)” value in test [3] was “robust and approximately equivalent activation of ERK”. The ERK activation entry at human GLP-1R [4] is “response equivalent to the maximally effective concentration of GLP-1 7–36 amide (10 nM)”. The “effect on cAMP generation by the β-adrenoceptor” value with β2-adrenoceptors (Figure 3D) is “inability of compound 2 to influence cAMP generation”. In the test on β2-adrenoceptors (isoproterenol (100 µM) + compound 2 (1 µM), IBMX, 5% DMSO), the “cAMP accumulation on co-stimulation with isoproterenol and compound 2 versus numerical sum” value is recorded as “only equivalent to the numerical addition of responses to the two ligands when used alone”. In addition, in test [5] (3 µM compound 2 alone, 15 min), the “cAMP elevation (INS-1E)” value was 40±8 pmol/mg protein. In test [5] (15 min, 10 mM glucose, IBMX), the “cAMP response in INS-1E (in words)” value is recorded as “elevated cAMP with low-potency”. In test [5] (compound 2 alone, concentrations greater than 10 µM not tested), the “Emax as % of that evoked by GLP-1 7–36 amide, cAMP (INS-1E)” value was determined as 34%. Further, in the test with GLP-1R [6], the “effect on activity of GLP-1 9–36 amide” value was “may increase the activity of GLP-1 9–36 amide”.
